Measurements reported in patent US9827208B2, “Antioxidant dietary supplement compositions and methods for maintaining healthy skin” (priority 2004, dated 2017).

Experiments:
[1] = Digestive tolerance of ingested high quantities of antioxidants; type: in vivo; conditions: oral
[2] = Stability of gallic acid as additive in juice and food products; type: physicochemical; conditions: acidity about pH 5 or lower
[3] = tested on: skin conditions arising from acne and rosacea; assay: Effect of oral antioxidant/lycopene compositions on skin conditions (acne, rosacea symptoms); type: in vivo, human; conditions: oral administration, methods of treatment of the invention
[4] = cited from earlier work

Structure (SMILES) | digestive system problems on ingestion of relatively high quantities [1] | effectiveness in improving skin conditions / suppressing skin ailments [3] | other results
O=C1O[C@H]([C@@H](O)CO)C(O)=C1O [ascorbic acid] | can result in digestive system problems |  | 
O=C(O)c1cc(O)c(O)c(O)c1 [gallic acid, trihydroxy benzoic acid] | can result in digestive system problems |  | stability of gallic acid in un-oxidized form in juice/food product [2]: stable
CC(C)=CCC/C(C)=C/C=C/C(C)=C/C=C/C(C)=C/C=C/C=C(C)/C=C/C=C(C)/C=C/C=C(\C)CCC=C(C)C [lycopene] |  | less effective | bioavailability of lycopene on heating and processing tomatoes into tomato paste ([4]; heating and processing into tomato paste): increases bioavailability; adsorption by humans of lycopene from dietary sources ([4]; humans, dietary sources): ≥ 2,5%; bioavailability of lycopene in presence of oil ([4]; presence of oil): increases bioavailability
COC(=O)c1cc(O)c(O)c(O)c1 [methyl gallate] |  | not effective | 
CCCOC(=O)c1cc(O)c(O)c(O)c1 [propyl gallate] |  | not effective | 
